Several values for one entry are separate records, joined by “and”; a condition that tells them apart may be missing. Equal values may be shown once.
How the values were obtained:
Assay type in all cases: physicochemical
[1] = Average size of liposomes made from cationic silyl lipids (Tables 1A, 1B); conditions: for Avg size: Table 1B, sila-DOTMA analog liposomes; for Avg. Size: Table 1A, liposome formulations of the cationic silyl lipid only in Milli Q purified water
Text: (§1) For colloidal dispersions, zeta potential is a useful measurement of the difference in electrokinetic potential between the dispersion medium and the stationary layer of fluid attached to the dispersed particle. The magnitude of the zeta potential indicates the degree of electrostatic repulsion between adjacent, similarly charged particles in a dispersion. A high zeta potential is an indicator of stability (resistance to aggregation). Both zeta potential and size can be determined using a zeta Potential Analyzer. Clogston J D et al., Methods Mol Biol. 2011; 697:63-70.
(§2) FIGS. 5A to 5C and TABLE 1A provide an illustration of such empirical determination: the effect of the length of the lipid tail, the end group, and the positioning of the silyl group. In this illustration, other properties of the lipid structure and liposome composition were kept constant. The liposome formulations just contained the cationic silyl lipids indicated, and Milli Q™ purified water.
(§3) FIGS. 7A to 7C and TABLE 1B provide another illustration of how structure of the silyl lipid can affect properties of nanoparticles.
(§4) Structural features such as tail length, positioning of the silicon group (n1, n2), and branching (as in 8,Si, (8)3-DOTMA) can influence liposome properties.

[2] = Average zeta potential of liposomes made from cationic silyl lipids (Tables 1A, 1B)
Text: as §1, §2, §3, §4

[3] = Liposome size by intensity, dynamic light scattering (silyl-DOTAP liposomes); conditions: for size (size by intensity, average ± standard deviation): three liposome solutions, thin film hydration/bath sonication, all trials; for size (size by intensity, average ± standard deviation) / size by intensity when excluding large aggregate/outlier: 1 mg/mL in Milli Q water; for size (size by intensity, average ± standard deviation) / size by intensity when excluding large aggregate/outlier / large aggregate/outlier in size by intensity distribution of one trial: DLS; for size by intensity when excluding large aggregate/outlier: outlier trial peak excluded; for large aggregate/outlier in size by intensity distribution of one trial: one of three trials; for average LNP size compared with DOTAP: comparison in words
Protocol: (§5) FIGS. 8A, 8B, and 8C show the measured size, zeta potential, and RNA encapsulation efficiency (EE) of lipid nanoparticles (LNPs) containing silyl-DOTAP lipids, compared with traditional DOTAP-derived LNPs. The data in FIG. 8A were obtained from three liposome solutions, whereupon the average size was determined using dynamic light scattering (DLS). The data in FIG. 8B were obtained from three liposome solutions, whereupon the average zeta potential was determined using dynamic light scattering (DLS). The data in FIG. 8C represent RNA encapsulation efficiency, determined for each lipid using the Quant-It RiboGreen fluorescence assay.
(§6) FIGS. 8A, 8B, and 8C provide an analysis of size, zeta potential, and RNA encapsulation efficiency (EE) of lipid nanoparticles (LNPs) composed of silyl-DOTAP lipids, compared with traditional DOTAP-derived LNPs. The data in FIG. 8A were obtained from three liposome solutions (1 mg/mL in Milli Q water) for each lipid, which were formed via thin film hydration/bath sonication and the average size by intensity was determined using dynamic light scattering (DLS). The data in FIG. 8B were obtained from three liposome solutions (1 mg/mL in Milli Q water) for each lipid, which were formed via thin film hydration/bath sonication and the average zeta potential was determined using dynamic light scattering (DLS).
(§7) The values shown are the average standard deviation size by intensity, zeta potential, and RNA EE shown in FIGS. 8A to 8C for each lipid. Footnotes: a: One trial corresponds to one liposome solution (1 mg/ml). […] DOTAP is 198 nm and 8SiPh is 183±65 nm when excluding this large aggregate/outlier.

[4] = Liposome zeta potential, dynamic light scattering (silyl-DOTAP liposomes); conditions: three liposome solutions, 1 mg/mL in Milli Q water, DLS
Protocol: as §5, §6, §7

RNA standard = assay: RNA encapsulation efficiency, Quant-It RiboGreen fluorescence assay; conditions: for RNA EE compared with DOTAP: comparison in words; for RNA EE (RNA encapsulation efficiency): RNA-lipid complex 10:1 wt/wt lipid/RNA, 15 min room temperature, three aliquots
Protocol: as §5
The data in FIG. 8C represent RNA encapsulation efficiency. One RNA-lipid complex solution (10:1 wt/wt lipid/RNA) was formed for each lipid by incubating the silyl liposomes with RNA standard at room temperature for fifteen minutes. The average RNA EE of three aliquots of RNA-lipid complex solution was determined for each lipid using the Quant-It RiboGreen fluorescence assay.
as §7

[5] = Table 1B, sila-DOTMA analog liposomes, two values given
[6] = Table 1A, liposome formulations of the cationic silyl lipid only in Milli Q purified water

| Compound | size (size by intensity, average ± standard deviation) [3] | zeta (average zeta potential ± standard deviation) [4] | RNA EE (RNA encapsulation efficiency) (RNA standard) | also measured |
| --- | --- | --- | --- | --- |
| CCCCCCCC[Si](CCCCCCCC)(CCCCCCCC)CCCCCCCCOCC(C[N+](C)(C)C)OCCCCCCCC[Si](CCCCCCCC)(CCCCCCCC)CCCCCCCC (stereo not shown) [8, Si, (8)3-DOTMA] |  |  |  | Avg size [1]: 184 nm; Avg. zeta Potential [2, 5]: 64 mV |
| CCCCCCCC[Si](C)(C)CCCCCCCC(=O)OCC(C[N+](C)(C)C)OC(=O)CCCCCCC[Si](C)(C)CCCCCCCC (stereo not shown) [QP8Si8] |  |  |  | Avg. Size [1]: 38 nm; Avg. zeta Potential [2, 6]: 67 mV |
| CCCCCCCCCCC[Si](C)(C)CCCCC(=O)OCC(C[N+](C)(C)C)OC(=O)CCCC[Si](C)(C)CCCCCCCCCCC (stereo not shown) [5Si11] | 225 ± 24 nm | 0 mV and 0 ± 0.05 mV |  | RNA EE compared with DOTAP (RNA standard): comparable RNA EEs to DOTAP |
| CCCCCCCC[Si](C)(C)CCCCC(=O)OCC(C[N+](C)(C)C)OC(=O)CCCC[Si](C)(C)CCCCCCCC (stereo not shown) [5Si8] | 171 ± 26 nm | 63 ± 14 mV | 74 ± 6% | RNA EE compared with DOTAP (RNA standard): higher EE than DOTAP |
| C[N+](C)(C)CC(COC(=O)CCCCCCC[Si](C)(C)c1ccccc1)OC(=O)CCCCCCC[Si](C)(C)c1ccccc1 (stereo not shown) [8SiPh] | 397 ± 322 nm | 75 ± 6 mV | 36 ± 5% | size by intensity when excluding large aggregate/outlier [3]: 183±65 nm; large aggregate/outlier in size by intensity distribution of one trial [3]: 1406 nm |
| C[N+](C)(C)CC(COC(=O)CCCC[Si](C)(C)c1ccccc1)OC(=O)CCCC[Si](C)(C)c1ccccc1 (stereo not shown) [5SiPh] | 226 ± 75 nm | 77 ± 6 mV | 88 ± 9% | RNA EE compared with DOTAP (RNA standard): higher EE than DOTAP |
| CCCCCCCCCCC[Si](C)(C)CCCCC(=O)OCC(C[N+](C)(C)C)OC(=O)CCCC[Si](C)(C)CCCCCCCCCCC (stereo not shown) [QP5Si11] |  |  |  | Avg. Size [1]: 59 nm; Avg. zeta Potential [2, 6]: 60 mV |
| C[N+](C)(C)CC(COC(=O)CCCCCCC[Si](C)(C)CCc1ccccc1)OC(=O)CCCCCCC[Si](C)(C)CCc1ccccc1 (stereo not shown) [8Si2Ph] | 275 ± 82 nm | 61 ± 12 mV | 56 ± 10% |  |
| C[N+](C)(C)CC(COC(=O)CCCC[Si](C)(C)C1CCCCC1)OC(=O)CCCC[Si](C)(C)C1CCCCC1 (stereo not shown) [5SiCy] | 169 ± 1 nm | 88 ± 5 mV | 85 ± 4% | RNA EE compared with DOTAP (RNA standard): higher EE than DOTAP |
| C[N+](C)(C)CC(COC(=O)CCCCCCC[Si](C)(C)CCCc1ccccc1)OC(=O)CCCCCCC[Si](C)(C)CCCc1ccccc1 (stereo not shown) [8Si3Ph] | 106 ± 35 nm | 91 ± 6 mV | 53 ± 8% |  |
| CCCCCC[Si](C)(C)CCCCCCCC(=O)OCC(C[N+](C)(C)C)OC(=O)CCCCCCC[Si](C)(C)CCCCCC (stereo not shown) [QP8Si6] |  |  |  | Avg. Size [1]: 38 nm; Avg. zeta Potential [2, 6]: 62 mV |
| CCCC[Si](C)(C)CCCCCCCC(=O)OCC(C[N+](C)(C)C)OC(=O)CCCCCCC[Si](C)(C)CCCC (stereo not shown) [QP8Si4] |  |  |  | Avg. Size [1]: 24 nm; Avg. zeta Potential [2, 6]: 33 mV and 44 mV |
| CCCCCC[Si](C)(C)CCCCCCCC(=O)OCC(C[N+](C)(C)C)OC(=O)CCCCCCC[Si](C)(C)CCCCCC (stereo not shown) [8Si6] | 164 ± 36 nm | 84 ± 5 mV | 48 ± 1% |  |
| CCCCCCCCC[Si](C)(C)CCCCCCC(=O)OCC(C[N+](C)(C)C)OC(=O)CCCCCC[Si](C)(C)CCCCCCCCC (stereo not shown) [QP7Si9] |  |  |  | Avg. Size [1]: 59 nm; Avg. zeta Potential [2, 6]: 74 mV |
| C[N+](C)(C)CC(COC(=O)CCCCC[Si](C)(C)c1ccccc1)OC(=O)CCCCC[Si](C)(C)c1ccccc1 (stereo not shown) [6SiPh] | 448 ± 110 nm | 81 ± 3 mV | 76 ± 1% | average LNP size compared with DOTAP [3]: noticeably larger average sizes than DOTAP; RNA EE compared with DOTAP (RNA standard): higher EE than DOTAP |
| CCCC[Si](C)(C)CCCCCCOCC(C[N+](C)(C)C)OCCCCCC[Si](C)(C)CCCC (stereo not shown) [6, Si, 4-DOTMA] |  |  |  | Avg size [1]: 79 nm; Avg. zeta Potential [2, 5]: 65 mV |
| C[N+](C)(C)CC(COC(=O)CCCC[Si](C)(C)CCc1ccccc1)OC(=O)CCCC[Si](C)(C)CCc1ccccc1 (stereo not shown) [5Si2Ph] | 198 nm | 76 ± 2 mV | 55 ± 4% |  |
| C[N+](C)(C)CC(COC(=O)CCCCCCC[Si](C)(C)C1CCCCC1)OC(=O)CCCCCCC[Si](C)(C)C1CCCCC1 (stereo not shown) [8SiCy] | 199 ± 30 nm | 70 ± 3 mV | 49 ± 4% |  |
| CCCCCCCC/C=C\CCCCCCCC(=O)OCC(C[N+](C)(C)C)OC(=O)CCCCCCC/C=C\CCCCCCCC.[Cl-] (stereo not shown) [DOTAP, N-(1-(2,3-dioleoyloxy)propyl)-N,N,N-trimethylammonium chloride, reference compound] | 314 ± 201 nm | 34 ± 5 mV | 65 ± 2% | size by intensity when excluding large aggregate/outlier [3]: 198 nm; large aggregate/outlier in size by intensity distribution of one trial [3]: 838.3 nm |
| CCCCCCCC[Si](C)(C)CCCCCCCC(=O)OCC(C[N+](C)(C)C)OC(=O)CCCCCCC[Si](C)(C)CCCCCCCC (stereo not shown) [8Si8] | 221 ± 40 nm | 73 ± 15 mV | 50 ± 7% | RNA EE compared with DOTAP (RNA standard): comparable RNA EEs to DOTAP |
| CCCCCCCCC[Si](C)(C)CCCCCCC(=O)OCC(C[N+](C)(C)C)OC(=O)CCCCCC[Si](C)(C)CCCCCCCCC (stereo not shown) [7Si9] | 221 ± 40 nm | 73 ± 4 mV | 59 ± 1% |  |
| C[N+](C)(C)CC(COC(=O)CCCCC[Si](C)(C)C1CCCCC1)OC(=O)CCCCC[Si](C)(C)C1CCCCC1 (stereo not shown) [6SiCy] | 188 ± 16 nm | 77 ± 5 mV | 23 ± 0.2% |  |
| C[N+](C)(C)CC(COC(=O)CCCCCCC[Si](C)(C)C1CCCCC1)OC(=O)CCCCCCC[Si](C)(C)C1CCCCC1 (stereo not shown) [QP8SiCy] |  |  |  | Avg. Size [1]: 29 nm; Avg. zeta Potential [2, 6]: 57 mV and 71 mV |
| CCCCCCCC[Si](C)(C)CCCCCCOCC(C[N+](C)(C)C)OCCCCCC[Si](C)(C)CCCCCCCC (stereo not shown) [6, Si, 8-DOTMA] |  |  |  | Avg size [1]: 216 nm; Avg. zeta Potential [2, 5]: 64 mV |
| C[N+](C)(C)CC(COC(=O)CCCC[Si](C)(C)c1ccccc1)OC(=O)CCCC[Si](C)(C)c1ccccc1 (stereo not shown) [QP5SiPh] |  |  |  | Avg. Size [1]: 80 nm; Avg. zeta Potential [2, 6]: 62 mV |
| C[N+](C)(C)CC(COC(=O)CCCC[Si](C)(C)CCCc1ccccc1)OC(=O)CCCC[Si](C)(C)CCCc1ccccc1 (stereo not shown) [5Si3Ph] | 208 ± 19 nm | 78 ± 3 mV | 55 ± 3% |  |
| CCCC[Si](C)(C)CCCCCC(=O)OCC(C[N+](C)(C)C)OC(=O)CCCCC[Si](C)(C)CCCC (stereo not shown) [6Si4] | 372 ± 93 nm | 91 ± 9 mV | 41 ± 6% | average LNP size compared with DOTAP [3]: noticeably larger average sizes than DOTAP |
| CCCC[Si](C)(C)CCCCCCCC(=O)OCC(C[N+](C)(C)C)OC(=O)CCCCCCC[Si](C)(C)CCCC (stereo not shown) [8Si4] | 198 nm | 70 ± 2 mV | 44 ± 7% |  |

Reference: patent publication US12396949B2, “Technology for improving properties of lipid nanoparticles using lipids in which cis-unsaturated bonds are substituted with a silicon atom” (The Regents of the University of California, priority 2022, dated 2025)
